We go through three compounds from patent US20250360126A1, “TARGETING AN ENZYME REQUIRED FOR ACUTE MYELOID LEUKEMIA” (Albert Einstein College of Medicine, priority 2023, published 2025).

The target of assay [1] is T1, recombinant human TTLL4 catalytic domain (Homo sapiens, UniProt Q14679).
T1 construct: TTLL4 catalytic domain (composed of residues 561-1199); made in house; host or cells: E. coli
T1 sequence (Q14679 561-1199): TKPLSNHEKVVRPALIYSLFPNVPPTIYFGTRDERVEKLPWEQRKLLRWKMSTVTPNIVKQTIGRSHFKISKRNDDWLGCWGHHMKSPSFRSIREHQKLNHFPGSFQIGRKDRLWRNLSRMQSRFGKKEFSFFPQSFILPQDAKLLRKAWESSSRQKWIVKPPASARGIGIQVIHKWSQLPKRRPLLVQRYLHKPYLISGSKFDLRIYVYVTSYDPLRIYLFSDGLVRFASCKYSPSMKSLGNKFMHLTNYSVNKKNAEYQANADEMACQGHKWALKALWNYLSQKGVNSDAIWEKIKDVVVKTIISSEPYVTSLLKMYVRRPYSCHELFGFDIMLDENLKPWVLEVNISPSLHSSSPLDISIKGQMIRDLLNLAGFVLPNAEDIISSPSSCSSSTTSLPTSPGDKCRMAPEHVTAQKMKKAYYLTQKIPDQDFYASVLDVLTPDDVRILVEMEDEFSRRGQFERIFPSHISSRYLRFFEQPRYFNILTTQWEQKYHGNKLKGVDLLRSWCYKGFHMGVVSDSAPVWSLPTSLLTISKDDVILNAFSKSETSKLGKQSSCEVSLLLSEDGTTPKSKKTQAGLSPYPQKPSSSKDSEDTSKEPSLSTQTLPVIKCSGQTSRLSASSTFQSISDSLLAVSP
Kind of assay: TTLL4 activity immunoassay (anti-glu immuno-detection of glutamylated Nap2 substrate). It is filed as biochemical. To be noted: 0.2 millimolar ATP, 1 millimolar glutamic acid, 30° C., 10 minutes, read-out: in vitro TTLL4 IC50. As to the method:
To measure TTLL4 activity and inhibition by lead compounds, we used an immunoassay. The antibody against mono-glutamate-glutamylation was prepared by immunizing white rabbits with the following peptide: MY {Glu (Glu)} DDEEESEAQGPKC (based on studies published here: doi: 10.1016/S0091-679X (10) 95003-6). The serum was purified by cross-adsorption against a non-glutamylated peptide: MYEDDEEESEAQGPKC. The purified antibody was stored in PBS with 0.02% Preclin 300. The final ELISA titer from the purified antibodies against the glutamylated peptide was >1:512,000. These antibodies are noted as “anti-glu”.
To measure activity, recombinant human TTLL4 catalytic domain (composed of residues 561-1199) was produced in E. coli and purified via nickel-affinity and size exclusion column (Superdex 200) chromatography. Similarly, the glutamate-glutamylation substrate Nap2 (gene from Xenopus tropicalis) was produced in E. coli and purified via nickel-affinity size exclusion column (Superdex 200) chromatography. […] Intensity measurements were quantified with the Microar-ray Profile plugin for FIJI/ImageJ and analyzed with a 4-parameter model in Graphpad Prism v9.

Assay [2] concerns OCI-AML3 human cell line (degron-inducible NPM1c). As to the kind of experiment: NPM1c degradation in OCI-AML3 NPM1c-degron cells, glutamate-glutamylation by Western blot. It is filed as cell-based. As to the method: FIGS. 3A and 3B illustrate that TTLL4 catalyzes NPM1 and NPM1c glutamate-glutamylation. FIG. 3A is a Western blot of an AML3-NPM1c-degron cell line with a doxycycline (DOX)-inducible TTLL4 shRNA knockdown. Scrambled shRNA or TTLL4 shRNA cells were treated +/−DOX, resulting in loss of glutamate-glutamylation on both NPM1c-degron and NPM1 wild type proteins (top gel, +DOX). FIG. 3B is a summary of a qRT-PCR analysis of shTTLL4 cells treated with DOX.
A doxycycline-inducible TTLL4 shRNA was introduced to this cell line. TTLL4kd eliminated NPM1c glutamate-glutamylation and reduced cellular proliferation (FIGS. 3A, 3B, and 4A). In addition, CRISPR-Cas9 mediated knockout of TTLL4 in OCI-AML3 cells reduced colony formation in methylcellulose (FIG. 4B, methylcellulose colony forming assays are used to detect cell proliferation and hematopoietic/progenitor activity) and increased apoptosis (FIG. 4C).

SMILES strings stand for the structures.

Consider `COc1ccc(-c2cc3c(SCC(=O)Nc4c(C)cc(C)cc4C)nccn3n2)cc1` [Candidate 1], for which the IC50 (as a rule, the concentration needed to halve the response being measured) in assay [1] was 9 µM. On to `CC[C@H](C(=O)N1CCCC[C@H]1C(=O)O[C@H](CCc1ccc(OC)c(OC)c1)c1ccccc1OCC(=O)NCCCCCCOc1cccc2c1C(=O)N(C1CCC(=O)NC1=O)C2=O)c1cc(OC)c(OC)c(OC)c1` (stereo partly drawn) [dTAG-13], for which the “glutamate-glutamylation of the NPM1 wt protein after degradation of NPM1c” value in assay [2] was “loss of glutamate-glutamylation of the NPM1 wt protein”. For the compound `O=C(Cn1c(=O)c(F)cn(C2CCCO2)c1=O)N1N=C(c2ccc(Cl)cc2)CC1c1ccco1` (stereo not drawn) [Candidate 2], the IC50 in assay [1] was found to be 40 µM.
